Laboratory results taken from US20260109707A1, “HETEROBIFUNCTIONAL COMPOUNDS AND METHODS OF TREATING DISEASE” (Halda Therapeutics OpCo. Inc., priority 2022, published 2026).
Like-named read-outs stand apart in the source and are kept apart here.

Key:
VCaP cells = experiment: Cellular growth inhibition assay for VCaP cells (CellTiter-Glo, 72 hours); assay type: cell-based, human
In short: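 Luminescent viability signal after 72 h of compound exposure gave GI50 values by four-parameter nonlinear regression. Compounds were added in 0.5% DMSO to cells plated 24 h earlier at 5000/well in DMEM containing 10% FBS.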

[1] = test system: T-Rex 293 cell line SC3 cells lacking increased expression of androgen receptor protein; experiment: Cellular growth inhibition assay, T-Rex 293 SC3 cells without doxycycline (CellTiter-Glo, 72 hours); assay type: cell-based; settings: T-Rex 293 cell line SC3 cells not exposed to doxycycline (lacking increased androgen receptor expression)
In short: (§1)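 Doxycycline (10 ng/mL) was either included or omitted to toggle wild-type androgen receptor expression in SC3 cells, a T-Rex 293 clone, grown in stripped-serum, phenol red-free medium. After 72 hours with compound, viable cells were quantified by CellTiter-Glo 2.0.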

T47D cells = experiment: Cellular growth inhibition assay for T47D cells (CellTiter-Glo, 72 hours); assay type: cell-based, human; settings: 72 hours treatment
In short: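 Growth inhibition as GI50, fitted with four parameters to CellTiter-Glo luminescence after 72 h of compound exposure (0.5% DMSO). Cells were T47D, grown in insulin-supplemented (0.2 units/mL) DMEM with 10% FBS and treated one day post-seeding.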

[2] = test system: T-Rex 293 cell line SC3 cells having increased expression of androgen receptor protein due to exposure to doxycycline; experiment: Cellular growth inhibition assay, T-Rex 293 SC3 cells with doxycycline (CellTiter-Glo, 72 hours); assay type: cell-based; settings: T-Rex 293 SC3 cells with increased androgen receptor expression due to doxycycline (10 ng/mL)
In short: as §1

Structure (SMILES) | GI50 (VCaP cells; Homo sapiens, VCaP, 72 h) | GI50 (T47D cells; Homo sapiens, T47D, 72 h) | GI50 (T47D cells) | GI50 (VCaP cells) | GI50 ([1]; 72 h) | GI50 ([2]; 72 h) | GI50 [1] | GI50 [2]
Cc1sc2c(c1C)C(c1ccc(OC[C@H]3C[C@@]4(CCCN(c5ccc(C(=O)N[C@H]6CC[C@H](Oc7ccc(C#N)c(Cl)c7)CC6)nn5)C4)C3)nc1)=N[C@@H](Cc1ncco1)c1nnc(C)n1-2 [I-263] | < 500 nM | 500 to 1500 nM |  |  | > 3000 nM | < 500 nM |  | 
Cc1sc2c(c1C)C(c1ccc(C(C)(C)C3CC4(CCCN(c5ccc(C(=O)N[C@H]6CC[C@H](Oc7ccc(C#N)c(Cl)c7)CC6)nn5)C4)C3)cc1)=N[C@@H](C)c1nnc(C)n1-2 (stereo partly drawn) [I-423] | > 3000 nM | 500 to 1500 nM |  |  | 1500 to 3000 nM | < 500 nM |  | 
Cc1sc2c(c1C)C(c1ccc(N(C)CC(=O)NCc3ccc(C(=O)N[C@H]4CC[C@H](Oc5ccc(C#N)c(Cl)c5)CC4)nn3)cc1)=N[C@H](Cc1ncco1)c1nnc(C)n1-2 [I-333] | < 500 nM | 500 to 1500 nM |  |  | > 3000 nM | > 3000 nM |  | 
Cc1sc2c(c1C)C(c1ccc(C(C)(C)N3CC4(CCN(c5ccc(C(=O)N[C@H]6CC[C@H](Oc7ccc(C#N)c(Cl)c7)CC6)nn5)CC4)C3)cc1)=N[C@@H](Cc1ncco1)c1nnc(C)n1-2 [I-391] | > 3000 nM | > 3000 nM |  |  | > 3000 nM | < 500 nM |  | 
Cc1sc2c(c1C)C(c1ccc(CCN3[C@@H](C)CN(c4ccc(C(=O)N[C@H]5CC[C@H](Oc6ccc(C#N)c(Cl)c6)CC5)nn4)C[C@@H]3C)cc1)=N[C@@H](Cc1ncco1)c1nnc(C)n1-2 [I-379] | < 500 nM | < 500 nM |  |  | < 500 nM | < 500 nM |  | 
Cc1sc2c(c1C)C(c1ccc(OC3CC4(CCN(c5ccc(C(=O)N[C@H]6CC[C@H](Oc7ccc(C#N)c(Cl)c7)CC6)nn5)CC4)C3)cc1)=N[C@@H](C)c1nnc(C)n1-2 [I-334] | < 500 nM | < 500 nM |  |  | 500 to 1500 nM | < 500 nM |  | 
Cc1sc2c(c1C)C(c1ccc(O[C@H]3CC[C@@]4(CCCN(c5ccc(C(=O)N[C@H]6CC[C@H](Oc7ccc(C#N)c(Cl)c7)CC6)nn5)C4)C3)cn1)=N[C@@H](Cc1ncco1)c1nnc(C)n1-2 [I-361] | < 500 nM | 500 to 1500 nM |  |  | > 3000 nM | < 500 nM |  | 
CCNC(=O)C[C@@H]1N=C(c2ccc(N(C)CC3CN(c4ccc(C(=O)N[C@H]5CC[C@H](Oc6ccc(C#N)c(Cl)c6)CC5)nn4)C3)cc2)c2c(sc(C)c2C)-n2c(C)nnc21 [I-30] | < 500 nM | 500 to 1500 nM |  |  | 500 to 1500 nM | < 500 nM |  | 
CC1=NN=C2C1c1sc(C)c(C)c1C(c1ccc(C#CC3C4CN(c5ccc(C(=O)N[C@H]6CC[C@H](Oc7ccc(C#N)c(Cl)c7)CC6)nn5)CC34)cc1)=N[C@@H]2Cc1ncco1 (stereo partly drawn) [I-408] | < 500 nM | < 500 nM |  |  | < 500 nM | < 500 nM |  | 
CCNC(=O)C[C@@H]1N=C(c2ccc(N3CC(N4CCN(c5ccc(C(=O)N[C@H]6CC[C@H](Oc7ccc(C#N)c(Cl)c7)CC6)nn5)CC4)C3)cc2)c2c(sc(C)c2C)-n2c(C)nnc21 [I-40] | < 500 nM | 500 to 1500 nM |  |  | 500 to 1500 nM | < 500 nM |  | 
Cc1sc2c(c1C)C(c1ccc(C#CC3CC4(C3)CN(c3ccc(C(=O)N[C@H]5CC[C@H](Oc6ccc(C#N)c(Cl)c6)CC5)nn3)C4)cc1)=NC1(CC1)c1nnc(C)n1-2 [I-418] | < 500 nM | < 500 nM |  |  | < 500 nM | < 500 nM |  | 

More lines, main results first:

GI50 (VCaP cells; Homo sapiens, VCaP, 72 h) | GI50 (T47D cells; Homo sapiens, T47D, 72 h) | GI50 (T47D cells) | GI50 (VCaP cells) | Structure (SMILES) | GI50 ([1]; 72 h) | GI50 ([2]; 72 h) | GI50 [1] | GI50 [2]
< 500 nM | < 500 nM |  |  | Cc1sc2c(c1C)C(c1ccc(C#CC3CC4(CCN(c5ccc(C(=O)N[C@H]6CC[C@H](Oc7ccc(C#N)c(Cl)c7)CC6)nn5)CC4)C3)cc1)=N[C@@H](Cc1ncco1)c1nnc(C)n1-2 [I-139] | < 500 nM | < 500 nM |  | 
< 500 nM |  | > 3000 nM |  | Cc1sc2c(c1C)C(c1ccc(OC3CN(CC4CCN(c5ccc(C(=O)N[C@H]6CC[C@H](Oc7ccc(C#N)c(Cl)c7)CC6)nn5)CC4)C3)cc1)=N[C@@H](Cc1ncco1)c1nnc(C)n1-2 [I-81] |  | < 500 nM | > 3000 nM | 
 |  | < 500 nM | < 500 nM | Cc1sc2c(c1C)C(c1ccc(-c3coc(C4CCN(c5ccc(C(=O)N[C@H]6CC[C@H](Oc7ccc(C#N)c(Cl)c7)CC6)nn5)CC4)n3)cc1)=NC(Cc1ncco1)c1nnc(C)n1-2 (stereo partly drawn) [I-442] |  |  | < 500 nM | < 500 nM
> 3000 nM | > 3000 nM |  |  | Cc1sc2c(c1C)C(c1ccc([C@@H]3CCN(C(=O)[C@H]4CCCN(c5ccc(C(=O)N[C@H]6CC[C@H](Oc7ccc(C#N)c(Cl)c7)CC6)nn5)C4)C3)cc1)=N[C@@H](Cc1ncco1)c1nnc(C)n1-2 [I-344] | > 3000 nM | > 3000 nM |  | 
< 500 nM | < 500 nM |  |  | Cc1sc2c(c1C)C(c1ccc(N3CCN(C(=O)c4ccc(C(=O)N[C@H]5CC[C@H](Oc6ccc(C#N)c(Cl)c6)CC5)nn4)CC3)cc1)=N[C@H](Cc1ncco1)c1nnc(C)n1-2 [I-251] | 500 to 1500 nM | < 500 nM |  | 
< 500 nM | < 500 nM |  |  | Cc1sc2c(c1C)C(c1ccc(OC3CN(CC4CCN(c5ccc(C(=O)N[C@H]6CC[C@H](Oc7ccc(C#N)c(Cl)c7)CC6)nn5)CC4)C3)cc1)=N[C@H](Cc1ncco1)c1nnc(C)n1-2 [I-82] | < 500 nM | < 500 nM |  | 
< 500 nM | 500 to 1500 nM |  |  | [2H]C([2H])(c1ccc(C2=N[C@@H](Cc3ncco3)c3nnc(C)n3-c3sc(C)c(C)c32)cc1)N1CC2(CCCN(c3ccc(C(=O)N[C@H]4CC[C@H](Oc5ccc(C#N)c(Cl)c5)CC4)nn3)C2)C1 [I-390] | 500 to 1500 nM | < 500 nM |  | 
500 to 1500 nM | 1500 to 3000 nM |  |  | Cc1sc2c(c1C)C(c1ccc(CNC(=O)[C@@H]3CCCN(c4ccc(C(=O)N[C@H]5CC[C@H](Oc6ccc(C#N)c(Cl)c6)CC5)nn4)C3)cc1)=N[C@@H](Cc1ncco1)c1nnc(C)n1-2 [I-230] | 500 to 1500 nM | < 500 nM |  | 
 |  | > 3000 nM | > 3000 nM | Cc1sc2c(c1C)C(c1ccc(CCC3CCC4CN(c5ccc(C(=O)N[C@H]6CC[C@H](Oc7ccc(C#N)c(Cl)c7)CC6)nn5)CCN4C3)cc1)=NC(Cc1ncco1)c1nnc(C)n1-2 (stereo partly drawn) [I-401] |  |  | > 3000 nM | > 3000 nM
< 500 nM | 1500 to 3000 nM |  |  | Cc1sc2c(c1C)C(c1ccc(CN(C)C(=O)[C@@H]3CC[C@@H](c4ccc(C(=O)N[C@H]5CC[C@H](Oc6ccc(C#N)c(Cl)c6)CC5)nn4)C3)cc1)=N[C@@H](Cc1ncco1)c1nnc(C)n1-2 [I-316] | > 3000 nM | < 500 nM |  | 
< 500 nM | < 500 nM |  |  | Cc1sc2c(c1C)C(c1ccc(OC[C@H]3CC[C@@]4(CCCN(c5ccc(C(=O)N[C@H]6CC[C@H](Oc7ccc(C#N)c(Cl)c7)CC6)nn5)C4)C3)cc1)=N[C@@H](Cc1ncco1)c1nnc(C)n1-2 [I-102] | < 500 nM | < 500 nM |  | 
< 500 nM | < 500 nM |  |  | Cc1sc2c(c1C)C(c1ccc(N3CCC4(CC3)CCN(c3ccc(C(=O)N[C@H]5CC[C@H](Oc6ccc(C#N)c(Cl)c6)CC5)nn3)C4)cc1)=N[C@@H](Cc1ncco1)c1nnc(C)n1-2 [I-368] | < 500 nM | < 500 nM |  | 
< 500 nM | 500 to 1500 nM |  |  | Cc1sc2c(c1C)C(c1ccc(OC[C@@H]3CCCN(c4ccc(C(=O)N[C@H]5CC[C@H](Oc6ccc(C#N)c(Cl)c6)CC5)nn4)C3)cc1)=N[C@@H](Cc1ncco1)c1nnc(C)n1-2 [I-218] | < 500 nM | < 500 nM |  | 
